# Columns and labels:
# Pseudomonas aeruginosa [1] = assay: Antibacterial activity against Pseudomonas aeruginosa ATCC 27853 assessed as growth inhibition after 16 to 20 hr by optical density measurement
# Pichia kudriavzevii [2] = assay: Antifungal activity against Pichia kudriavzevii ATCC 6258 assessed as growth inhibition after 46 to 50 hr by optical density measurement
# Staphylococcus aureus [3] = assay: Antibacterial activity against Staphylococcus aureus ATCC 29213 assessed as growth inhibition after 16 to 20 hr by CLSI broth dilution method; type: functional
# Pichia kudriavzevii [4] = assay: Antifungal activity against Pichia kudriavzevii ATCC 6258 assessed as growth inhibition after 46 to 50 hr by CLSI broth dilution method; type: functional
# Aspergillus fumigatus [5] = assay: Antifungal activity against Aspergillus fumigatus ATCC 204305 assessed as growth inhibition after 46 to 50 hr by Alamar blue assay; type: functional, organism-based
# Staphylococcus aureus [6] = assay: Antibacterial activity against methicillin-resistant Staphylococcus aureus ATCC 33591 assessed as growth inhibition after 16 to 20 hr by Alamar blue assay; type: functional, organism-based
# Cryptococcus neoformans [7] = assay: Antifungal activity against Cryptococcus neoformans ATCC 90113 assessed as growth inhibition after 70 to 74 hr by Alamar blue assay; type: functional, organism-based
# Aspergillus fumigatus [8] = assay: Antifungal activity against Aspergillus fumigatus ATCC 204305 assessed as growth inhibition after 46 to 50 hr by CLSI broth dilution method; type: functional
# Nakaseomyces glabratus [9] = assay: Antifungal activity against Candida glabrata ATCC 90030 assessed as growth inhibition after 46 to 50 hr by CLSI broth dilution method; type: functional
# [10] = system: Mycobacterium intracellulare; assay: Antibacterial activity against Mycobacterium intracellulare ATCC 23068 assessed as growth inhibition after 70 to 74 hr by CLSI broth dilution method; type: functional
# [11] = system: Mycobacterium intracellulare; assay: Antibacterial activity against Mycobacterium intracellulare ATCC 23068 assessed as growth inhibition after 70 to 74 hr by Alamar blue assay; type: functional, organism-based
# Escherichia coli [12] = assay: Antibacterial activity against Escherichia coli ATCC 35218 assessed as growth inhibition after 16 to 20 hr by CLSI broth dilution method; type: functional
# Cryptococcus neoformans [13] = assay: Antifungal activity against Cryptococcus neoformans ATCC 90113 assessed as growth inhibition after 70 to 74 hr by CLSI broth dilution method; type: functional
# Escherichia coli [14] = assay: Antibacterial activity against Escherichia coli ATCC 35218 assessed as growth inhibition after 16 to 20 hr by optical density measurement
# Candida albicans [15] = assay: Antifungal activity against Candida albicans ATCC 90028 assessed as growth inhibition after 46 to 50 hr by Alamar blue assay; type: functional, organism-based
# Staphylococcus aureus [16] = assay: Antibacterial activity against Staphylococcus aureus ATCC 29213 assessed as growth inhibition after 16 to 20 hr by Alamar blue assay; type: functional, organism-based
# Candida albicans [17] = assay: Antifungal activity against Candida albicans ATCC 90028 assessed as growth inhibition after 46 to 50 hr by CLSI broth dilution method; type: functional
# Staphylococcus aureus [18] = assay: Antibacterial activity against methicillin-resistant Staphylococcus aureus ATCC 33591 assessed as growth inhibition after 16 to 20 hr by CLSI broth dilution method; type: functional
# Nakaseomyces glabratus [19] = assay: Antifungal activity against Candida glabrata ATCC 90030 assessed as growth inhibition after 46 to 50 hr by optical density measurement
# Pseudomonas aeruginosa [20] = assay: Antibacterial activity against Pseudomonas aeruginosa ATCC 27853 assessed as growth inhibition after 16 to 20 hr by CLSI broth dilution method; type: functional
# Escherichia coli [21] = assay: Antibacterial activity against Escherichia coli ATCC 35218 assessed as growth inhibition after 16 to 20 hr by optical density method
SMILES,IC50 (Pseudomonas aeruginosa [1]) [µg/mL],IC50 (Pichia kudriavzevii [2]) [µg/mL],MIC (Staphylococcus aureus [3]) [µg/mL],MIC (Pichia kudriavzevii [4]) [µg/mL],IC50 (Aspergillus fumigatus [5]) [µg/mL],IC50 (Staphylococcus aureus [6]) [µg/mL],IC50 (Cryptococcus neoformans [7]) [µg/mL],MIC (Aspergillus fumigatus [8]) [µg/mL],MIC (Nakaseomyces glabratus [9]) [µg/mL],MIC [10] [µg/mL],IC50 [11] [µg/mL],MIC (Escherichia coli [12]) [µg/mL],MIC (Cryptococcus neoformans [13]) [µg/mL],IC50 (Escherichia coli [14]) [µg/mL],IC50 (Candida albicans [15]) [µg/mL],IC50 (Staphylococcus aureus [16]) [µg/mL],MIC (Candida albicans [17]) [µg/mL],MIC (Staphylococcus aureus [18]) [µg/mL],IC50 (Nakaseomyces glabratus [19]) [µg/mL],MIC (Pseudomonas aeruginosa [20]) [µg/mL],also measured
CC(C)c1ccc(C2(c3ccc(O)c(O)c3)OC(=O)c3ccccc32)cc1 (configuration not stated),61,15.5,18.8,> 200,53.2,6.81,137,> 200,200,> 200,> 200,> 200,> 200,> 200,172,4.96,> 200,12.5,45.8,> 200,–
CC(C)c1ccc(C2(c3ccc(O)c(O)c3)OC(=O)c3ccccc32)cc1[N+](=O)[O-] (configuration not stated),> 200,> 200,50,> 100,> 200,27.8,> 200,> 100,> 100,> 200,> 200,> 200,> 100,> 200,> 200,26.4,> 100,50,76.3,> 200,–
CC(C)c1ccc(C2(c3ccc(O)c(O)c3O)OC(=O)c3ccccc32)cc1 (configuration not stated),116,25.5,25,> 200,> 200,18.8,> 200,> 200,> 200,> 200,> 200,> 200,> 200,–,65,18.4,> 200,25,17.5,> 200,IC50 (Escherichia coli [21]): 170 µg/mL
CC(C)c1ccc(C2(c3ccc(O)c(O)c3O)OC(=O)c3ccccc32)cc1[N+](=O)[O-] (configuration not stated),163,88.7,100,> 200,> 200,45.7,> 200,> 200,83.3,> 200,> 200,> 200,> 200,> 200,98.9,42.3,> 200,133,21.3,> 200,–
C[C@@H]1[C@H](O)[C@@H](C)/C=C/C=C/C=C/C=C/C=C/C=C/C=C/[C@H](O[C@@H]2O[C@H](C)[C@@H](O)[C@H](N)[C@@H]2O)C[C@@H]2O[C@](O)(C[C@@H](O)C[C@@H](O)[C@H](O)CC[C@@H](O)C[C@@H](O)CC(=O)O[C@H]1C)C[C@H](O)[C@H]2C(=O)O [AMPHOTERICIN B],–,0.56,–,1.25,0.67,–,0.32,1.25,0.63,–,–,–,0.63,–,0.2,–,0.52,–,0.28,–,–
O=C(O)c1cn(C2CC2)c2cc(N3CCNCC3)c(F)cc2c1=O [CIPROFLOXACIN],–,–,–,–,–,–,–,–,–,–,0.32,–,–,0.005,–,–,–,–,–,–,–

# Reference: ChEMBL document CHEMBL3046465, “A facile synthesis of new 3,3-disubstituted phthalides of pharmacological interest” (Med Chem Res, 2013)
